Results from patent US11596692B1 (Incyte Corporation, priority 2018, dated 2023).
Where two headings read alike, the source gives them in different places.

Test system: IRF3
Experiment: IRF3 activation assay in THP-1 Dual cells
Format: cell-based
Settings: Homo sapiens, read-out: THP1 IRF3 EC50
Procedure: THP-1 Dual Cells (Invivogen) were maintained in RPMI1640 medium with addition of 10% FBS, 100 μg/ml zeocin, 10 μg/ml blasticidin. Cells were added in a 96-well flat bottom assay plate at 100,000 per well in 100 μL complete RPMI medium. Test compounds were prepared by serial dilution in complete RPMI medium and 100 μL test compounds were transferred to each corresponding well. The assay plate was incubated at 37° C., 5% CO2 for 24 hours. After the overnight incubation, 20 μL of the culture supernatants were collected, followed by addition of 180 μL of QUANTI-Blue (Invivogen) to assess IRF3 activity. The amount of IRF3 activation was assessed by reading the absorbance at 620-655 nm with a microplate reader 2 hours later. The culture supernatant from the untreated THP-1 cells was used as the negative control. EC50 determination was performed by fitting the curve of percent control activity versus the log of the compound concentration using the GraphPad Prism 6.0 software.

SMILES | EC50 (THP-1, Table 4A) | EC50 (THP-1, Table 4B) | EC50 (THP-1, Table 4C)
CCn1nc(C)cc1C(=O)Nc1nc2cc(C(N)=O)cc(C)c2n1C/C=C/Cn1c2ccccc2c2cnc(-c3cc(C)nn3CC)nc21 [Example S2, (E)-1-(4-(2-(1-ethyl-3-methyl-1H-pyrazol-5-yl)-9H-pyrimido[4,5-b]indol-9-yl)but-2-enyl)-2-(1-ethyl-3-methyl-1H-pyrazole-5-carboxamido)-7-methyl-1H-benzo[d]imidazole-5-carboxamide] | 0.1 to 0.5 µM | < 1 µM | 0.2 to 0.5 µM
CCn1nc(C)cc1C(=O)Nc1nc2cc(C(N)=O)cc(C)c2n1C/C=C/Cn1c2ccc(C(N)=O)cc2c2cc(F)c(-c3cc(C)nn3CC)nc21 [Example S24, (E)-9-(4-(5-carbamoyl-2-(1-ethyl-3-methyl-1H-pyrazole-5-carboxamido)-7-methyl-1H-benzo[d]imidazol-1-yl)but-2-en-1-yl)-2-(1-ethyl-3-methyl-1H-pyrazol-5-yl)-3-fluoro-9H-pyrido[2,3-b]indole-6-carboxamide] | ≤ 0.1 µM | < 0.2 µM | ≤ 0.05 µM
CCn1nc(C)cc1C(=O)Nc1nc2cc(C(N)=O)cc(OCCCOC)c2n1C/C=C/Cn1c2nc(-c3cc(C)nn3CC)ncc2c2cc(C(N)=O)cc(OCCOCCOCCOCCC(=O)O)c21 [Example S59, (E)-3-(2-(2-(2-(6-carbamoyl-9-(4-(5-carbamoyl-2-(1-ethyl-3-methyl-1H-pyrazole-5-carboxamido)-7-(3-methoxypropoxy)-1H-benzo[d]imidazol-1-yl)but-2-enyl)-2-(1-ethyl-3-methyl-1H-pyrazol-5-yl)-9H-pyrimido[4,5-b]indol-8-yloxy)ethoxy)ethoxy)ethoxy)propanoic acid] | – | – | 0.05 to 0.2 µM
CCn1nc(C)cc1C(=O)Nc1nc2cc(C(N)=O)cc(OCCCO)c2n1C/C=C/Cn1c2ccc(C(N)=O)cc2c2cc(F)c(-c3cc(C)nn3CC)nc21 [Example S37, (E)-9-(4-(5-carbamoyl-2-(1-ethyl-3-methyl-1H-pyrazole-5-carboxamido)-7-(3-hydroxypropoxy)-1H-benzo[d]imidazol-1-yl)but-2-en-1-yl)-2-(1-ethyl-3-methyl-1H-pyrazol-5-yl)-3-fluoro-9H-pyrido[2,3-b]indole-6-carboxamide] | – | – | ≤ 0.05 µM
CCn1nc(C)cc1C(=O)Nc1nc2cc(C(N)=O)cc(C)c2n1C/C=C/Cn1c2nc(-c3cc(C)nn3CC)ncc2c2cc(C(N)=O)cc(OCCCOC)c21 [Example S12, (E)-9-(4-(5-carbamoyl-2-(1-ethyl-3-methyl-1H-pyrazole-5-carboxamido)-7-methyl-1H-benzo[d]imidazol-1-yl)but-2-enyl)-2-(1-ethyl-3-methyl-1H-pyrazol-5-yl)-8-(3-methoxypropoxy)-9H-pyrimido[4,5-b]indole-6-carboxamide] | ≤ 0.1 µM | < 0.2 µM | ≤ 0.05 µM
CCn1nc(C)cc1C(=O)Nc1nc2cc(C(N)=O)cc(C)c2n1C/C=C/Cn1c2ccc(C(N)=O)cc2c2cnc(-c3cc(C(F)(F)F)nn3CC)nc21 [Example S9, (E)-9-(4-(5-carbamoyl-2-(1-ethyl-3-methyl-1H-pyrazole-5-carboxamido)-7-methyl-1H-benzo[d]imidazol-1-yl)but-2-enyl)-2-(1-ethyl-3-(trifluoromethyl)-1H-pyrazol-5-yl)-9H-pyrimido[4,5-b]indole-6-carboxamide] | 0.1 to 0.5 µM | < 1 µM | 0.2 to 0.5 µM
CCn1nc(C)cc1C(=O)Nc1nc2cc(C(N)=O)cc(OC)c2n1C/C=C/Cn1c2ccc(C(N)=O)cc2c2cnc(-c3cc(C)nn3CC)nc21 [Example S4, (E)-9-(4-(5-carbamoyl-2-(1-ethyl-3-methyl-1H-pyrazole-5-carboxamido)-7-methoxy-1H-benzo[d]imidazol-1-yl)but-2-enyl)-2-(1-ethyl-3-methyl-1H-pyrazol-5-yl)-9H-pyrimido[4,5-d]indole-6-carboxamide] | 0.5 to 1 µM | < 1 µM | 0.5 to 1 µM
CCn1nc(C)cc1C(=O)Nc1nc2cc(C(N)=O)cc(OCCCNC(=O)CCC(=O)O)c2n1C/C=C/Cn1c2nc(-c3cc(C)nn3CC)ncc2c2cc(C(N)=O)cc(OCCCOC)c21 [Example S64, (E)-4-((3-((5-carbamoyl-1-(4-(6-carbamoyl-2-(1-ethyl-3-methyl-1H-pyrazol-5-yl)-8-(3-methoxypropoxy)-9H-pyrimido[4,5-b]indol-9-yl)but-2-en-1-yl)-2-(1-ethyl-3-methyl-1H-pyrazole-5-carboxamido)-1H-benzo[d]imidazol-7-yl)oxy)propyl)amino)-4-oxobutanoic acid] | – | – | 0.05 to 0.2 µM
CCn1nc(C)cc1C(=O)Nc1nc2cc(C(N)=O)cc(OCCCNC(=O)[C@@H](N)CC(=O)O)c2n1C/C=C/Cn1c2nc(-c3cc(C)nn3CC)ncc2c2cc(C(N)=O)cc(OCCCOC)c21 [Example S47, (S,E)-3-amino-4-((3-((5-carbamoyl-1-(4-(6-carbamoyl-2-(1-ethyl-3-methyl-1H-pyrazol-5-yl)-8-(3-methoxypropoxy)-9H-pyrimido[4,5-b]indol-9-yl)but-2-en-1-yl)-2-(1-ethyl-3-methyl-1H-pyrazole-5-carboxamido)-1H-benzo[d]imidazol-7-yl)oxy)propyl)amino)-4-oxobutanoic acid] | – | – | 0.05 to 0.2 µM
CCn1nc(C)cc1C(=O)Nc1nc2cc(C(N)=O)cc(OC)c2n1C/C=C/Cn1c2nc(-c3cc(C)nn3CC)ncc2c2cc(C(N)=O)cc(OCCCNC(=O)OCCC(=O)O)c21 [Example S52, (E)-3-(3-(6-carbamoyl-9-(4-(5-carbamoyl-2-(1-ethyl-3-methyl-1H-pyrazole-5-carboxamido)-7-methoxy-1H-benzo[d]imidazol-1-yl)but-2-enyl)-2-(1-ethyl-3-methyl-1H-pyrazol-5-yl)-9H-pyrimido[4,5-b]indol-8-yloxy)propylcarbamoyloxy)propanoic acid] | – | – | ≤ 0.05 µM
CCn1nc(C)cc1C(=O)Nc1nc2cc(C(N)=O)cc(OC)c2n1C/C=C/Cn1c2nc(-c3cc(C)nn3CC)ncc2c2cc(C(N)=O)cc(OCCC3CCN(CCCC(=O)O)CC3)c21 [Example S60, (E)-4-(4-(2-(6-carbamoyl-9-(4-(5-carbamoyl-2-(1-ethyl-3-methyl-1H-pyrazole-5-carboxamido)-7-methoxy-1H-benzo[d]imidazol-1-yl)but-2-enyl)-2-(1-ethyl-3-methyl-1H-pyrazol-5-yl)-9H-pyrimido[4,5-b]indol-8-yloxy)ethyl)piperidin-1-yl)butanoic acid] | – | – | 0.05 to 0.2 µM
CCn1nc(C)cc1C(=O)Nc1nc2cc(C(N)=O)cc(OCCOC(=O)c3cc(C)nn3CC)c2n1C/C=C/Cn1c2nc(-c3cc(C)nn3CC)ncc2c2cc(C(N)=O)cc(OCCCOC)c21 [Example S40, (E)-2-((5-carbamoyl-1-(4-(6-carbamoyl-2-(1-ethyl-3-methyl-1H-pyrazol-5-yl)-8-(3-methoxypropoxy)-9H-pyrimido[4,5-b]indol-9-yl)but-2-en-1-yl)-2-(1-ethyl-3-methyl-1H-pyrazole-5-carboxamido)-1H-benzo[d]imidazol-7-yl)oxy)ethyl 1-ethyl-3-methyl-1H-pyrazole-5-carboxylate] | – | – | ≤ 0.05 µM
CCn1nc(C)cc1C(=O)Nc1nc2cc(C(N)=O)cc(OCCCO)c2n1C/C=C/Cn1c2nc(-c3cc(C)nn3CC)ncc2c2cc(C(N)=O)cc(OCCCOC(=O)NCCC(=O)O)c21 [Example S62, (E)-3-((3-(6-carbamoyl-9-(4-(5-carbamoyl-2-(1-ethyl-3-methyl-1H-pyrazole-5-carboxamido)-7-(3-hydroxypropoxy)-1H-benzo[d]imidazol-1-yl)but-2-enyl)-2-(1-ethyl-3-methyl-1H-pyrazol-5-yl)-9H-pyrimido[4,5-b]indol-8-yloxy)propoxy)carbonylamino)propanoic acid] | – | – | 0.05 to 0.2 µM
CCn1nc(C)cc1C(=O)Nc1nc2cc(C(N)=O)cc(OCCCNC(=O)[C@H](CC(=O)O)NC(=O)[C@H](CC(=O)O)NC(=O)[C@H](CCCNC(=N)N)NC(=O)[C@@H](N)CC(=O)O)c2n1C/C=C/Cn1c2nc(-c3cc(C)nn3CC)ncc2c2cc(C(N)=O)cc(OCCCOC)c21 [Example S42] | – | – | 0.2 to 0.5 µM
CCn1nc(C)cc1C(=O)Nc1nc2cc(C(N)=O)cc(OCCCOC)c2n1C/C=C/Cn1c2nc(-c3cc(C)nn3CC)ncc2c2cc(C(N)=O)cc(OCCCNC(=O)CCCC(=O)O)c21 [Example S55, (E)-5-(3-(6-carbamoyl-9-(4-(5-carbamoyl-2-(1-ethyl-3-methyl-1H-pyrazole-5-carboxamido)-7-(3-methoxypropoxy)-1H-benzo[d]imidazol-1-yl)but-2-enyl)-2-(1-ethyl-3-methyl-1H-pyrazol-5-yl)-9H-pyrimido[4,5-b]indol-8-yloxy)propylamino)-5-oxopentanoic acid] | – | – | ≤ 0.05 µM
CCn1nc(C)cc1C(=O)Nc1nc2cc(C(N)=O)cc(OCCCOC(=O)c3cc(C)nn3CC)c2n1C/C=C/Cn1c2ccc(C(N)=O)cc2c2cnc(-c3cc(C)nn3CC)nc21 [Example S17, (E)-3-((5-carbamoyl-1-(4-(6-carbamoyl-2-(1-ethyl-3-methyl-1H-pyrazol-5-yl)-9H-pyrimido[4,5-b]indol-9-yl)but-2-en-1-yl)-2-(1-ethyl-3-methyl-1H-pyrazole-5-carboxamido)-1H-benzo[d]imidazol-7-yl)oxy)propyl 1-ethyl-3-methyl-1H-pyrazole-5-carboxylate] | ≤ 0.1 µM | < 0.2 µM | ≤ 0.05 µM
CCn1nc(C)cc1C(=O)Nc1nc2cc(C(N)=O)cc(OCCO)c2n1C/C=C/Cn1c2nc(-c3cc(C)nn3CC)ncc2c2cc(C(N)=O)cc(OCCCOC)c21 [Example S41, (E)-9-(4-(5-carbamoyl-2-(1-ethyl-3-methyl-1H-pyrazole-5-carboxamido)-7-(2-hydroxyethoxy)-1H-benzo[d]imidazol-1-yl)but-2-en-1-yl)-2-(1-ethyl-3-methyl-1H-pyrazol-5-yl)-8-(3-methoxypropoxy)-9H-pyrimido[4,5-b]indole-6-carboxamide] | – | – | ≤ 0.05 µM
